From US20240368104A1, “Novel Dialkoxynaphtho[2,3-C]Furan-1(3H)-One Derivatives and Pharmaceutical Composition For Preventing or Treating Respiratory Disease or SARS-COV-2 Infection Disease, Comprising Same” (priority 2021, published 2024)
Where a name gives a salt, the structure may show the parent alone. Read-outs that look alike come from different tables or passages of the source.

Tests used:
SARS-COV-2 = test: microbe, parasite or virus in culture; format: cell-based; parameters: SI (Selectivity Index, CC50/IC50): unit not given here; settings: for SI (Selectivity Index, CC50/IC50): SARS-COV-2, values >50 assumed to be 50; for IC50: read-out: SARS-COV-2 inhibition (IC50)
in vitro = settings: African green monkey
[1] = Severe acute respiratory syndrome coronavirus 2, Vero cells, 24 hours infection
[2] = Severe acute respiratory syndrome coronavirus 2, Vero, 24 h

SMILES | SI (Selectivity Index, CC50/IC50) (SARS-COV-2) | IC50 (SARS-COV-2; [1]) [µM] | CC50 (in vitro) [µM] | IC50 (SARS-COV-2; [2]) [µM]
COc1cc2cc3c(c(-c4ccc(F)nc4)c2cc1OC)C(=O)OC3 [Example 35, 9-(6-fluoropyridin-3-yl)-6,7-dimethoxynaphtho[2,3-c]furan-1(3H)-one] | 1.00 | > 50 | > 50 | 
COc1cc2cc3c(c(-c4ccnc(F)c4)c2cc1OC)C(=O)OC3 [Example 186, 9-(2-fluoropyridin-4-yl)-6,7-dimethoxynaphtho[2,3-c]furan-1(3H)-one] | 1.0 | > 50 | > 50 | 
CCCN(CCO)c1ncc(-c2c3c(cc4cc(OC)c(OC)cc24)COC3=O)cn1.Cl [Example 77, 9-(2-((2-hydroxyethyl)(propyl)amino)pyrimidin-5-yl)-6,7-dimethoxynaphtho[2,3-c]furan-1(3H)-one hydrochloride] | 1.58 |  | > 50 | 31.6
COc1cc2cc(CO)c(C(=O)[O-])c(-c3cc4c(cc3O)OCO4)c2cc1OC.[Na+] [Example 212, 1-(6-hydroxybenzo[d][1,3]dioxol-5-yl)-3-(hydroxymethyl)-6,7-dimethoxy-2-naphthoate sodium (I)] | 2.81 | 17.8 | > 50 | 
COc1cc2cc3c(c(N4CCN(c5ncc(Br)cn5)CC4)c2cc1OC)C(=O)OC3 [Example 131, 9-(4-(5-bromopyrimidin-2-yl)piperazin-1-yl)-6,7-dimethoxynaphtho[2,3-c]furan-1(3H)-one] | 1.44 | 34.6 | > 50 | 
CC[C@@H]1CCCCN1c1ncc(-c2c3c(cc4cc(OC)c(OC)cc24)COC3=O)cn1 [Example 113, (R)-9-(2-(2-ethylpiperidin-1-yl)pyrimidin-5-yl)-6,7-dimethoxynaphtho[2,3-c]furan-1(3H)-one] | 50.52 | 0.99 | > 50 | 
COc1cc2cc3c(c(-c4ccc(N[C@H]5CCc6c(cccc6OC)C5)nc4)c2cc1OC)C(=O)OC3.Cl [Example 172, (S)-6,7-dimethoxy-9-(6-((5-methoxy-1,2,3,4-tetrahydronaphthalen-2-yl)amino)pyridin-3-yl)naphtho[2,3-c]furan-1(3H)-one] | 1.0 |  | > 50 | > 50
COc1ccc2nc(C)cc(-c3c4c(cc5cc(OC)c(OC)cc35)COC4=O)c2c1 [Example 155, 6,7-dimethoxy-9-(6-methoxy-2-methylquinolin-4-yl)naphtho[2,3-c]furan-1(3H)-one] | 1.0 | > 50 | > 50 | 
COc1cc2cc3c(c(-c4cnc(N(C)CCC5=CCCCC5)nc4)c2cc1OC)C(=O)OC3.Cl [Example 101, 9-(2-((2-(cyclohex-1-en-1-yl)ethyl)(methyl)amino)pyrimidin-5-yl)-6,7-dimethoxynaphtho[2,3-c]furan-1(3H)-one hydrochloride] | 13.00 |  | > 50 | 3.85
COc1cc2cc3c(c(-c4cnc(NC5CC5)nc4)c2cc1OC)C(=O)OC3 [Example 69, 9-(2-(cyclopropylamino)pyrimidin-5-yl)-6,7-dimethoxynaphtho[2,3-c]furan-1(3H)-one] | 1.00 | > 50 | > 50 | 
COc1cc2c(OC)c3c(c(-c4ccc(N(C)[C@H]5CCc6c(cccc6OC)C5)nc4)c2cc1OC)COC3=O [Example 266, (S)-6,7,9-trimethoxy-4-(6-((5-methoxy-1,2,3,4-tetrahydronaphthalen-2-yl)(methyl)amino)pyridin-3-yl)naphtho[2,3-c]furan-1(3H)-one] | 1.00 | > 50 | > 50 | 
COc1cc2cc3c(c(-c4ccc5[nH]ccc5c4)c2cc1OC)C(=O)OC3 [Example 34, 9-(1H-indol-5-yl)-6,7-dimethoxynaphtho[2,3-c]furan-1(3H)-one] | 12.40 | 4.03 | > 50 | 
COc1cc2c(OC)c3c(c(-c4ccc5c(c4)OC(F)(F)O5)c2cc1OC)COC3=O [Example 259, 4-(2,2-difluorobenzo[d][1,3]dioxol-5-yl)-6,7,9-trimethoxynaphtho[2,3-c]furan-1(3H)-one] | 1.00 | > 50 | > 50 | 
COc1cc2cc(CO)c(C(=O)NC(C)C)c(-c3cc4c(cc3O)OCO4)c2cc1OC [Example 228, 1-(6-hydroxybenzo[d][1,3]dioxol-5-yl)-3-(hydroxymethyl)-N-isopropyl-6,7-dimethoxy-2-naphthamide] | 1.50 | 33.4 | > 50 | 
COc1cc2cc3c(c(-c4ccc5c(CN6CCOCC6)c[nH]c5c4)c2cc1OC)C(=O)OC3.Cl [Example 203, 6,7-dimethoxy-9-(3-(morpholinomethyl)-1H-indol-6-yl)naphtho[2,3-c]furan-1(3H)-one] | 8.39 |  | 29.7 | 3.54
COc1cc2cc3c(c(-c4ccc5c(N6CCNCC6)ccnc5c4)c2cc1OC)C(=O)OC3 [Example 152, 6,7-dimethoxy-9-(4-(piperazin-1-yl)quinolin-7-yl)naphtho[2,3-c]furan-1(3H)-one] | 2.10 | 23.8 | > 50 | 
COc1cc2cc3c(c(-c4ccc(N(C)CCc5cn(C)c6ccccc56)nc4)c2cc1OC)C(=O)OC3 [Example 196, 6,7-dimethoxy-9-(6-(methyl(2-(1-methyl-1H-indol-3-yl)ethyl)amino)pyridin-3-yl)naphtho[2,3-c]furan-1(3H)-one] | 20.54 | 2.43 | > 50 | 
CCNc1ccc(-c2c3c(cc4cc(OC)c(OC)cc24)COC3=O)cc1 [Example 250, 9-(4-(ethylamino)phenyl)-6,7-dimethoxynaphtho[2,3-c]furan-1(3H)-one] | 10.40 | 4.81 | > 50 | 
COc1cc2cc3c(c(-c4cnc(NC5CCCC5)nc4)c2cc1OC)C(=O)OC3.Cl [Example 91, 9-(2-(cyclopentylamino)pyrimidin-5-yl)-6,7-dimethoxynaphtho[2,3-c]furan-1(3H)-one hydrochloride] | 5.15 |  | > 50 | 9.7
COc1cc2cc3c(c(-c4ccc5c(c4)N(C)CCC5)c2cc1OC)C(=O)OC3 [Example 170, 6,7-dimethoxy-9-(1-methyl-1,2,3,4-tetrahydroquinolin-7-yl)naphtho[2,3-c]furan-1(3H)-one] | 24.25 | 2.06 | > 50 | 
COc1cc2cc3c(c(-c4ccc(N5CCC(F)(F)CC5)nc4)c2cc1OC)C(=O)OC3 [Example 122, 9-(6-(4,4-difluoropiperidin-1-yl)pyridin-3-yl)-6,7-dimethoxynaphtho[2,3-c]furan-1(3H)-one] | 512.00 | 0.17 | > 50 | 
COc1cc2cc3c(c(-c4cnc(N(C)Cc5ccc(C)o5)nc4)c2cc1OC)C(=O)OC3 [Example 103, 6,7-dimethoxy-9-(2-(methyl((5-methylfuran-2-yl)methyl)amino)pyrimidin-5-yl)naphtho[2,3-c]furan-1(3H)-one hydrochloride] | 175.17 |  | > 50 | 0.29
CCN(CCO)c1ncc(-c2c3c(cc4cc(OC)c(OC)cc24)COC3=O)cn1.Cl [Example 81, 9-(2-(ethyl(2-hydroxyethyl)amino)pyrimidin-5-yl)-6,7-dimethoxynaphtho[2,3-c]furan-1(3H)-one hydrochloride] | 2.43 |  | > 50 | 20.6
CCN(c1ccc(-c2c3c(cc4cc(OC)c(OC)cc24)COC3=O)cn1)C1CCCC1 [Example 191, 9-(6-(cyclopentyl(ethyl)amino)pyridin-3-yl)-6,7-dimethoxynaphtho[2,3-c]furan-1(3H)-one] | 35.47 | 1.41 | > 50 | 
COc1cc2cc3c(c(-c4ccc5nccc(N6CCNCC6)c5c4)c2cc1OC)C(=O)OC3 [Example 135, 6,7-dimethoxy-9-(4-(piperazin-1-yl)quinolin-6-yl)naphtho[2,3-c]furan-1(3H)-one] | 2.90 | 17.2 | > 50 | 
CCCCN(CC)c1ncc(-c2c3c(cc4cc(OC)c(OC)cc24)COC3=O)cn1 [Example 66, 9-(2-(butyl(ethyl)amino)pyrimidin-5-yl)-6,7-dimethoxynaphtho[2,3-c]furan-1(3H)-one] | 19.03 | 2.63 | > 50 | 
COc1ncc(-c2c3c(cc4cc(OC)c(OC)cc24)COC3=O)cn1 [Example 26, 6,7-dimethoxy-9-(2-methoxypyrimidin-5-yl)naphtho[2,3-c]furan-1(3H)-one] | 9.52 | 5.25 | > 50 | 
COc1cc2cc3c(c(-c4ccc(-c5c(OC)ncnc5OC)cc4)c2cc1OC)C(=O)OC3 [Example 157, 9-(4-(4,6-dimethoxypyrimidin-5-yl)phenyl)-6,7-dimethoxynaphtho[2,3-c]furan-1(3H)-one] | 1.0 | > 50 | > 50 | 
COc1cc2cc3c(c(-c4ccc(N(C)C(=O)c5ccc(Cl)nc5)nc4)c2cc1OC)C(=O)OC3.Cl [Example 234, 6-chloro-N-(5-(6,7-dimethoxy-3-oxo-1,3-dihydronaphtho[2,3-c]furan-4-yl)pyridin-2-yl)-N-methylnicotinamide] | 1.00 |  | > 50 | > 50
COc1cc2cc3c(c(-c4ccc(N5C[C@@H](C)O[C@@H](C)C5)nc4)c2cc1OC)C(=O)OC3 [Example 121, 9-(6-((2S,6R)-2,6-dimethylmorpholino)pyridin-3-yl)-6,7-dimethoxynaphtho[2,3-c]furan-1(3H)-one] | 21.51 | 2.32 | > 50 | 
